{"source": "PubChem BioAssay AID2060336", "about": "(Molecular Pharmacology Branch, DTP, NCI, 2025);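 note: spheroids exposed to agents for 7 days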;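 for viability, T/C: 100% = DMSO vehicle control wells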", "test_system": "958767-090-R-J1-PDC spheroid growth", "test": "Anticancer human tumor 958767-090-R-J1-PDC patient-derived head and neck squamous carcinoma cell line growth inhibition [IpAb]", "settings": "spheroids with HUVEC and MSC; for IC50: curve of first compound; for viability, T/C: stronger effect = lower value", "how_it_was_run": "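Combinations with ipatasertib or abemaciclib were tested on tumour spheroids holding HUVEC (25%) and MSC (15%) alongside 60% malignant cells. Top concentration was at or near clinical Cmax (10 microM if undefined), descending in half-log steps.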", "data": [{"smiles": "Cn1ncc(Cl)c1-c1cc(C(=O)NC(CN)Cc2cccc(F)c2)sc1Cl", "note": "(stereo not given) + CC(C)NCC(C(=O)N1CCN(c2ncnc3c2C(C)CC3O)CC1)c1ccc(Cl)cc1", "values": [{"measurement": "IC50", "setting": "second compound 0.1 µM", "value": 1210, "unit": "nM"}, {"measurement": "IC50", "setting": "second compound 0.316 µM", "value": 952, "unit": "nM"}, {"measurement": "IC50", "setting": "second compound 1 µM", "value": 1020, "unit": "nM"}, {"measurement": "IC50", "setting": "second compound 3.16 µM", "value": 113, "unit": "nM"}, {"measurement": "IC50", "setting": "second compound 10 µM", "value": "< 31.6", "unit": "nM"}, {"measurement": "viability, T/C", "setting": "second compound 0.1 µM, first compound 0.0316 µM", "value": 70.3, "unit": "%"}, {"measurement": "viability, T/C", "setting": "second compound 0.1 µM, first compound 0.1 µM", "value": 70.3, "unit": "%"}, {"measurement": "viability, T/C", "setting": "second compound 0.1 µM, first compound 0.316 µM", "value": 54.5, "unit": "%"}, {"measurement": "viability, T/C", "setting": "second compound 0.1 µM, first compound 1 µM", "value": 59.3, "unit": "%"}, {"measurement": "viability, T/C", "setting": "second compound 0.1 µM, first compound 3.16 µM", "value": 32.8, "unit": "%"}, {"measurement": "viability, T/C", "setting": "second compound 0.1 µM, first compound 10 µM", "value": 0.14, "unit": "%"}, {"measurement": "viability, T/C", "setting": "second compound 0.316 µM, first compound 0.0316 µM", "value": 57.5, "unit": "%"}, {"measurement": "viability, T/C", "setting": "second compound 0.316 µM, first compound 0.1 µM", "value": 62.6, "unit": "%"}, {"measurement": "viability, T/C", "setting": "second compound 0.316 µM, first compound 0.316 µM", "value": 52.2, "unit": "%"}, {"measurement": "viability, T/C", "setting": "second compound 0.316 µM, first compound 1 µM", "value": 47.5, "unit": "%"}, {"measurement": "viability, T/C", "setting": "second compound 0.316 µM, first compound 3.16 µM", "value": 37.9, "unit": "%"}, {"measurement": "viability, T/C", "setting": "second compound 0.316 µM, first compound 10 µM", "value": 0.46, "unit": "%"}, {"measurement": "viability, T/C", "setting": "second compound 1 µM, first compound 0.0316 µM", "value": 54.6, "unit": "%"}, {"measurement": "viability, T/C", "setting": "second compound 1 µM, first compound 0.1 µM", "value": 50.8, "unit": "%"}, {"measurement": "viability, T/C", "setting": "second compound 1 µM, first compound 0.316 µM", "value": 55.4, "unit": "%"}, {"measurement": "viability, T/C", "setting": "second compound 1 µM, first compound 1 µM", "value": 50, "unit": "%"}, {"measurement": "viability, T/C", "setting": "second compound 1 µM, first compound 3.16 µM", "value": 31.6, "unit": "%"}, {"measurement": "viability, T/C", "setting": "second compound 1 µM, first compound 10 µM", "value": 0.13, "unit": "%"}, {"measurement": "viability, T/C", "setting": "second compound 3.16 µM, first compound 0.0316 µM", "value": 53.1, "unit": "%"}, {"measurement": "viability, T/C", "setting": "second compound 3.16 µM, first compound 0.1 µM", "value": 47.6, "unit": "%"}, {"measurement": "viability, T/C", "setting": "second compound 3.16 µM, first compound 0.316 µM", "value": 48.4, "unit": "%"}, {"measurement": "viability, T/C", "setting": "second compound 3.16 µM, first compound 1 µM", "value": 45.7, "unit": "%"}, {"measurement": "viability, T/C", "setting": "second compound 3.16 µM, first compound 3.16 µM", "value": 32.3, "unit": "%"}, {"measurement": "viability, T/C", "setting": "second compound 3.16 µM, first compound 10 µM", "value": 0.64, "unit": "%"}, {"measurement": "viability, T/C", "setting": "second compound 10 µM, first compound 0.0316 µM", "value": 42.5, "unit": "%"}, {"measurement": "viability, T/C", "setting": "second compound 10 µM, first compound 0.1 µM", "value": 36.3, "unit": "%"}, {"measurement": "viability, T/C", "setting": "second compound 10 µM, first compound 0.316 µM", "value": 39.8, "unit": "%"}, {"measurement": "viability, T/C", "setting": "second compound 10 µM, first compound 1 µM", "value": 42.5, "unit": "%"}, {"measurement": "viability, T/C", "setting": "second compound 10 µM, first compound 3.16 µM", "value": 22.2, "unit": "%"}, {"measurement": "viability, T/C", "setting": "second compound 10 µM, first compound 10 µM", "value": 0.81, "unit": "%"}]}]}
